Test results as given in patent publication US8114814B2, “Herbicide composition” (Kumiai Chemical Industry Co., Ltd., priority 2007, dated 2012).

Columns and labels:
Conditions in all cases: 28th day of the treatment
[1] = tested on: Monochoria vaginalis (Burm. f.) Kunth; assay: Test for herbicidal effect by paddy soil treatment; type: in vivo
Text: (§1) A paddy soil was filled in a plastic pot of 100 cm^2 and subjected to puddling. Thereinto were sowed seeds of Echinochloa oryzicola Vasing, Monochoria vaginalis (Burm. f.) Kunth, Schoenoplectus juncoides (Roxb.) Paila or Cyperus serotinus Rottb., after which water was filled at a depth of 3 cm. Each pot was placed in a greenhouse for raising, At a timing when the Echinochloa oryzicola Vasing reached about a two-leaf stage, a seedling of two-leaf stage rice (variety: Kinnanpuu) was transplanted into each pot at a depth of 2 cm. A wettable powder prepared in accordance with Formulation Example 2 was diluted with water based on the total sum of the active ingredients, and the dilution was dropped on the water surface of the pot. Then, the pot was allowed to stand for raising. The herbicidal effect of the wettable powder was examined at the 28th day of the treatment (the dropping of the dilution) in accordance with the standard of Table 4.

[2] = tested on: Echinochloa oryzicola Vasing; assay: Test for herbicidal effect by paddy soil treatment; type: in vivo
Text: as §1

Cyperus serotinus Rottb. = assay: Test for herbicidal effect by paddy soil treatment; type: in vivo
Text: as §1

[3] = tested on: Schoenoplectus juncoides (Roxb.) Paila; assay: Test for herbicidal effect by paddy soil treatment; type: in vivo
Text: as §1

Transplanted Rice = assay: Test for herbicidal effect by paddy soil treatment: phytotoxicity to transplanted rice; type: in vivo, rice (variety: Kinnanpuu)
Text: as §1, with “A wettable powder prepared in accordance with Formulation Example 2 was diluted with water based on the total sum of the active ingredients, and the dilution was dropped on the water surface of the pot.” left out

[4] = tested on: Leptochloa chinensis Nees.; assay: Test for herbicidal effect by paddy foliage treatment; type: in vivo
Text: (§2) A paddy soil was filled in a plastic pot of 100 cm^2 and subjected to puddling. Thereinto were sowed seeds of rice (variety: Akebono), Echinochloa crusgalli (L.) P. Beauv. Var. crus-galli, Leptochloa chinensis Nees., Monochoria vaginalis (Burm. f.) Kunth, or Fimbristylis miliacea Vahl, after which each plant was raised in a greenhouse in a drained treatment until the Echinochloa crus-galli (L.) P. Beauv. Var. crus-galli reached a two-leaf stage. At that timing, a wettable powder prepared in accordance with Formulation Example 2 was diluted with water based on the total sum of the active ingredients, and the dilution was sprayed at a rate of 20 liters/10 ares using a micro-sprayer (a product of OLYMPOS). 3 days after the spraying, water was filled at a depth of 3 cm. Then, the pot was allowed to stand for raising. The herbicidal effect of the wettable powder was examined at the 28th day of the treatment (the spraying of the dilution) in accordance with the standard of Table 4.

[5] = tested on: Monochoria vaginalis (Burm. f.) Kunth; assay: as above; type: in vivo
Text: as §2

[6] = tested on: Fimbristylis miliacea Vahl; assay: as above; type: in vivo
Text: as §2

[7] = tested on: Echinochloa crusgalli (L.) P. Beauv. Var. crus-galli; assay: as above; type: in vivo
Text: as §2

Direct seeding rice = assay: Test for herbicidal effect by paddy foliage treatment: phytotoxicity to direct seeding rice; type: in vivo, rice (variety: Akebono)
Text: as §2, with “At that timing, a wettable powder prepared in accordance with Formulation Example 2 was diluted with water based on the total sum of the active ingredients, and the dilution was sprayed at a rate of 20 liters/10 ares using a micro-sprayer (a product of OLYMPOS).” left out

SMILES | phytotoxicity index, Transplanted Rice (Transplanted Rice; Dose 20 g a.i./10a) | herbicidal effect index, Monochoria vaginalis ([1]; Dose 20 g a.i./10a) | herbicidal effect index, Echinochloa oryzicola ([2]; Dose 20 g a.i./10a) | herbicidal effect index, Cyperus serotinus (Cyperus serotinus Rottb.; Dose 20 g a.i./10a) | herbicidal effect index, Schoenoplectus juncoides ([3]; Dose 20 g a.i./10a) | herbicidal effect index, Leptochloa chinensis ([4]; Dose 20 g a.i./10a) | herbicidal effect index, Monochoria vaginalis ([5]; Dose 20 g a.i./10a) | herbicidal effect index, Fimbristylis miliacea ([6]; Dose 20 g a.i./10a) | herbicidal effect index, Echinochloa crus-galli ([7]; Dose 20 g a.i./10a) | phytotoxicity index, Direct seeding rice (Direct seeding rice; Dose 20 g a.i./10a) | other results
Cc1ccc(NC(=O)NC(C)(C)c2ccccc2)cc1 [Daimuron, reference compound] |  |  |  |  |  |  |  |  |  |  | herbicidal effect index, Monochoria vaginalis ([1]; Dose 150 g a.i./10a): 2 (Herbicidal effect or phytotoxicity of 20% to less than 30%); herbicidal effect index, Echinochloa oryzicola ([2]; Dose 150 g a.i./10a): 0 (Herbicidal effect (growth inhibition) or phytotoxicity of less that 10%); herbicidal effect index, Cyperus serotinus (Cyperus serotinus Rottb.; Dose 150 g a.i./10a): 3 (Herbicidal effect or phytotoxicity of 30% to less than 40%); herbicidal effect index, Schoenoplectus juncoides ([3]; Dose 150 g a.i./10a): 7 (Herbicidal effect or phytotoxicity of 70% to less than 80%)
CC1(C)CC(SCc2ccccc2)=NO1 [Compound 1] | 1 (Herbicidal effect or phytotoxicity of 10% to less than 20%) | 4 (Herbicidal effect or phytotoxicity of 40% to less than 50%) | 8 (Herbicidal effect or phytotoxicity of 80% to less than 90%) | 2 (Herbicidal effect or phytotoxicity of 20% to less than 30%) | 6 (Herbicidal effect or phytotoxicity of 60% to less than 70%) |  |  |  |  |  | 
C#CCOc1ccc(Cl)c(Cl)c1CS(=O)(=O)C1=NOC(C)(C)C1 [Compound 33] |  |  |  |  |  | 6 (Herbicidal effect or phytotoxicity of 60% to less than 70%) | 6 (Herbicidal effect or phytotoxicity of 60% to less than 70%) | 3 (Herbicidal effect or phytotoxicity of 30% to less than 40%) | 7 (Herbicidal effect or phytotoxicity of 70% to less than 80%) | 1 (Herbicidal effect or phytotoxicity of 10% to less than 20%) | 
CCC(CC)Nc1c([N+](=O)[O-])cc(C)c(C)c1[N+](=O)[O-] [Pendimethalin, reference compound] |  |  |  |  |  |  |  |  |  |  | herbicidal effect index, Leptochloa chinensis ([4]; Dose 80 g a.i./10a): 5 (Herbicidal effect or phytotoxicity of 50% to less than 60%); herbicidal effect index, Monochoria vaginalis ([5]; Dose 80 g a.i./10a): 2 (Herbicidal effect or phytotoxicity of 20% to less than 30%); herbicidal effect index, Fimbristylis miliacea ([6]; Dose 80 g a.i./10a): 3 (Herbicidal effect or phytotoxicity of 30% to less than 40%); herbicidal effect index, Echinochloa crus-galli ([7]; Dose 80 g a.i./10a): 5 (Herbicidal effect or phytotoxicity of 50% to less than 60%); phytotoxicity index, Direct seeding rice (Direct seeding rice; Dose 80 g a.i./10a): 1 (Herbicidal effect or phytotoxicity of 10% to less than 20%)
CC1(C)CC(S(=O)(=O)Cc2c(OCC(F)F)ccc(Cl)c2Cl)=NO1 [Compound 34] |  |  |  |  |  | 3 (Herbicidal effect or phytotoxicity of 30% to less than 40%) | 5 (Herbicidal effect or phytotoxicity of 50% to less than 60%) | 4 (Herbicidal effect or phytotoxicity of 40% to less than 50%) | 5 (Herbicidal effect or phytotoxicity of 50% to less than 60%) | 2 (Herbicidal effect or phytotoxicity of 20% to less than 30%) | 
CCOc1cc(Cl)c(CS(=O)(=O)C2=NOC(C)(C)C2)cc1Cl [Compound 54] | 1 (Herbicidal effect or phytotoxicity of 10% to less than 20%) | 5 (Herbicidal effect or phytotoxicity of 50% to less than 60%) | 8 (Herbicidal effect or phytotoxicity of 80% to less than 90%) | 1 (Herbicidal effect or phytotoxicity of 10% to less than 20%) | 2 (Herbicidal effect or phytotoxicity of 20% to less than 30%) | 6 (Herbicidal effect or phytotoxicity of 60% to less than 70%) | 4 (Herbicidal effect or phytotoxicity of 40% to less than 50%) | 2 (Herbicidal effect or phytotoxicity of 20% to less than 30%) | 7 (Herbicidal effect or phytotoxicity of 70% to less than 80%) | 2 (Herbicidal effect or phytotoxicity of 20% to less than 30%) | 
COC(=O)c1ccccc1CS(=O)(=O)NC(=O)Nc1nc(OC)cc(OC)n1 [Bensulfuron-methyl, reference compound] |  |  |  |  |  |  |  |  |  |  | herbicidal effect index, Monochoria vaginalis ([1]; Dose 1 g a.i./10a): 8 (Herbicidal effect or phytotoxicity of 80% to less than 90%); herbicidal effect index, Echinochloa oryzicola ([2]; Dose 1 g a.i./10a): 3 (Herbicidal effect or phytotoxicity of 30% to less than 40%); herbicidal effect index, Cyperus serotinus (Cyperus serotinus Rottb.; Dose 1 g a.i./10a): 7 (Herbicidal effect or phytotoxicity of 70% to less than 80%); herbicidal effect index, Schoenoplectus juncoides ([3]; Dose 1 g a.i./10a): 7 (Herbicidal effect or phytotoxicity of 70% to less than 80%)
COCc1cccc(C(O)c2nc(OC)cc(OC)n2)c1NS(=O)(=O)C(F)F (stereo not shown) [Pyrimisulfan, reference compound] |  |  |  |  |  |  |  |  |  |  | phytotoxicity index, Transplanted Rice (Transplanted Rice; Dose 1 g a.i./10a): 1 (Herbicidal effect or phytotoxicity of 10% to less than 20%); herbicidal effect index, Monochoria vaginalis ([1]; Dose 1 g a.i./10a): 6 (Herbicidal effect or phytotoxicity of 60% to less than 70%); herbicidal effect index, Echinochloa oryzicola ([2]; Dose 1 g a.i./10a): 6 (Herbicidal effect or phytotoxicity of 60% to less than 70%); herbicidal effect index, Cyperus serotinus (Cyperus serotinus Rottb.; Dose 1 g a.i./10a): 9 (Herbicidal effect or phytotoxicity of 90% to less than 100%); herbicidal effect index, Schoenoplectus juncoides ([3]; Dose 1 g a.i./10a): 9 (Herbicidal effect or phytotoxicity of 90% to less than 100%)
CCOC(=O)c1cnn(C)c1S(=O)(=O)NC(=O)Nc1nc(OC)cc(OC)n1 [Pyrazosulfuron-ethyl, reference compound] |  |  |  |  |  |  |  |  |  |  | herbicidal effect index, Leptochloa chinensis ([4]; Dose 3 g a.i./10a): 0 (Herbicidal effect (growth inhibition) or phytotoxicity of less that 10%); herbicidal effect index, Monochoria vaginalis ([5]; Dose 3 g a.i./10a): 6 (Herbicidal effect or phytotoxicity of 60% to less than 70%); herbicidal effect index, Fimbristylis miliacea ([6]; Dose 3 g a.i./10a): 8 (Herbicidal effect or phytotoxicity of 80% to less than 90%); herbicidal effect index, Echinochloa crus-galli ([7]; Dose 3 g a.i./10a): 2 (Herbicidal effect or phytotoxicity of 20% to less than 30%); phytotoxicity index, Direct seeding rice (Direct seeding rice; Dose 3 g a.i./10a): 1 (Herbicidal effect or phytotoxicity of 10% to less than 20%)
CC1(C)CC(S(=O)(=O)Cc2c(OCC(F)(F)F)ccc(Cl)c2Cl)=NO1 [Compound 31] | 1 (Herbicidal effect or phytotoxicity of 10% to less than 20%) | 5 (Herbicidal effect or phytotoxicity of 50% to less than 60%) | 8 (Herbicidal effect or phytotoxicity of 80% to less than 90%) | 2 (Herbicidal effect or phytotoxicity of 20% to less than 30%) | 4 (Herbicidal effect or phytotoxicity of 40% to less than 50%) | 3 (Herbicidal effect or phytotoxicity of 30% to less than 40%) | 3 (Herbicidal effect or phytotoxicity of 30% to less than 40%) | 2 (Herbicidal effect or phytotoxicity of 20% to less than 30%) | 6 (Herbicidal effect or phytotoxicity of 60% to less than 70%) | 2 (Herbicidal effect or phytotoxicity of 20% to less than 30%) | 
